Results reported in the supplement of paper PMC10307832.

compound: C(C(=O)C(=O)O)Br [Bromopyruvate]; assay: relative viability (nuclei count vs DMSO), 5 days (fraction); higher = more cells survive; conditions: 1 µM
Summary of the method: (§1)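 A plate was accepted only when its control CV was below 25% and the cells had doubled at least once. Viability is defined from nuclear counts as treated wells divided by vehicle wells, with the median taken across plates. That median covers lung cancer cell lines grown in 1536-well plates, dosed by pinning at five √10-spaced library-drug concentrations, and counted in MetaXpress from 4× Hoechst images after 5 days.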

Cell Line	relative viability
NCI-H1666	0.971
NCI-H647	1
LK-2	0.98
NCI-H2126	1.03
SK-MES-1	0.99
H3255	0.953
COR-L23	1.02
COR-L 105	0.87
IA-LM	1.03
LOU-NH91	1.09
NCI-H2170	0.938
NCI-H3122	0.992
HOP-62	1.06
HCC-44	1.02
A549	0.942
LU99A	0.852
BEN	1.07

Cell Line	relative viability
HARA	1.01
HCC-78	1.08
LCLC-97TM1	1.02
NCI-H2023	0.893
A-427	1.05
NCI-H460	0.99
NCI-H727	0.959
NCI-H1734	0.971
NCI-H520	0.926
NCI-H2405	1.06
SW 1573	1.03
NCI-H1395	1.07
201T	1.03
NCI-H1915	1.02
HCC-827	1.04
LXF-289	1.03
NCI-H2347	1.06

same assay, conditions: 3.162 µM

Cell Line	relative viability
Calu-6	0.995
HCC-366	0.979
NCI-H1666	0.98
NCI-H647	1.08
LK-2	1.02
NCI-H2126	0.995
SK-MES-1	1.07
H3255	0.999
COR-L23	0.913
COR-L 105	1.06
IA-LM	0.96
LOU-NH91	1.01
NCI-H2170	0.947
NCI-H3122	1.01
HOP-62	0.981
HCC-44	0.986
A549	0.969
LU99A	0.913

Cell Line	relative viability
BEN	0.949
HARA	1.1
HCC-78	0.971
LCLC-97TM1	1.06
NCI-H2023	0.962
A-427	1.09
NCI-H460	0.972
NCI-H727	1.19
NCI-H1734	1.02
NCI-H520	1.17
NCI-H2405	0.968
SW 1573	0.995
NCI-H1395	0.896
201T	0.983
NCI-H1915	0.984
HCC-827	1.02
LXF-289	1.01
NCI-H2347	0.956

same assay, conditions: 10 µM

Cell Line	relative viability
Calu-6	1.12
HCC-366	1.05
NCI-H1666	1.04
NCI-H647	1.17
LK-2	1.11
NCI-H2126	1.05
SK-MES-1	1.12
H3255	1.02
COR-L23	1.19
COR-L 105	0.866
IA-LM	0.983
LOU-NH91	0.973
NCI-H2170	0.95
NCI-H3122	0.999
HOP-62	0.936
HCC-44	0.992
A549	1.18
LU99A	0.977

Cell Line	relative viability
BEN	0.971
HARA	0.997
HCC-78	1.02
LCLC-97TM1	1
NCI-H2023	1.15
A-427	1.16
NCI-H460	1.13
NCI-H727	1.09
NCI-H1734	1.15
NCI-H520	0.989
NCI-H2405	0.984
SW 1573	1.13
NCI-H1395	0.955
201T	1.04
NCI-H1915	1
HCC-827	0.988
LXF-289	1.04
NCI-H2347	1.01

same assay, conditions: 31.62 µM

Cell Line	relative viability
Calu-6	0.994
HCC-366	1.02
NCI-H1666	0.937
NCI-H647	1.03
LK-2	0.936
NCI-H2126	0.958
SK-MES-1	0.958
H3255	1.01
COR-L23	1.03
COR-L 105	0.838
IA-LM	0.884
LOU-NH91	0.984
NCI-H2170	0.969
NCI-H3122	0.972
HOP-62	1.03
HCC-44	1.01
A549	0.95
LU99A	0.967

Cell Line	relative viability
BEN	0.951
HARA	0.983
HCC-78	0.94
LCLC-97TM1	0.974
NCI-H2023	0.958
A-427	0.967
NCI-H460	1
NCI-H727	1.08
NCI-H1734	1
NCI-H520	1.07
NCI-H2405	0.873
SW 1573	0.925
NCI-H1395	0.787
201T	0.946
NCI-H1915	1.01
HCC-827	1.06
LXF-289	1.03
NCI-H2347	0.837

same assay, conditions: 100 µM

Cell Line	relative viability
Calu-6	0.809
HCC-366	0.998
NCI-H1666	0.965
NCI-H647	0.951
LK-2	0.832
NCI-H2126	1.03
SK-MES-1	1.05
H3255	1.12
COR-L23	0.723
COR-L 105	0.687
IA-LM	0.924
LOU-NH91	1.01
NCI-H2170	1.01
NCI-H3122	1.01
HOP-62	1.03
HCC-44	0.985
A549	1.06
LU99A	1.03

Cell Line	relative viability
BEN	0.934
HARA	1.05
HCC-78	0.993
LCLC-97TM1	0.859
NCI-H2023	0.959
A-427	1.1
NCI-H460	1.01
NCI-H727	1.03
NCI-H1734	0.979
NCI-H520	0.855
NCI-H2405	1.05
SW 1573	0.385
NCI-H1395	1.1
201T	0.997
NCI-H1915	0.997
HCC-827	1.07
LXF-289	1.02
NCI-H2347	1.03

compound: CC(O)(CS(=O)(=O)c1ccc(F)cc1)C(=O)Nc1ccc(C#N)c(C(F)(F)F)c1 [Bicalutamide]; assay: as above; conditions: 0.08 µM
Summary of the method: as §1

Cell Line	relative viability
Calu-6	1.09
HCC-366	1.01
NCI-H1666	1.04
NCI-H647	0.987
LK-2	0.961
NCI-H2126	0.967
SK-MES-1	1.02
H3255	0.969
COR-L23	1.03
COR-L 105	1.05
IA-LM	1.02
LOU-NH91	1.09
NCI-H2170	0.916
NCI-H3122	1.03
HOP-62	1.12
HCC-44	1.03
A549	0.974
LU99A	0.926

Cell Line	relative viability
BEN	1.01
HARA	1.02
HCC-78	0.941
LCLC-97TM1	1.04
NCI-H2023	1.01
A-427	0.996
NCI-H460	0.974
NCI-H727	1.02
NCI-H1734	0.991
NCI-H520	0.948
NCI-H2405	1.07
SW 1573	1.02
NCI-H1395	1.05
201T	1.02
NCI-H1915	1.01
HCC-827	1.08
LXF-289	0.998
NCI-H2347	1.1

same assay, conditions: 0.253 µM

Cell Line	relative viability
Calu-6	0.989
HCC-366	0.95
NCI-H1666	0.854
NCI-H647	0.886
LK-2	0.825
NCI-H2126	0.949
SK-MES-1	0.961
H3255	0.896
COR-L23	1.01
COR-L 105	0.814
IA-LM	0.936
LOU-NH91	0.765
NCI-H2170	0.931
NCI-H3122	0.977
HOP-62	0.988
HCC-44	0.998
A549	0.875
LU99A	0.885

Cell Line	relative viability
BEN	0.876
HARA	0.802
HCC-78	0.991
LCLC-97TM1	0.974
NCI-H2023	0.903
A-427	1.02
NCI-H460	0.952
NCI-H727	0.807
NCI-H1734	0.886
NCI-H520	0.952
NCI-H2405	0.968
SW 1573	0.757
NCI-H1395	0.9
201T	0.932
NCI-H1915	0.922
HCC-827	0.842
LXF-289	0.958
NCI-H2347	0.913

same assay, conditions: 0.8 µM

Cell Line	relative viability
Calu-6	1.07
HCC-366	1.06
NCI-H1666	0.96
NCI-H647	1.37
LK-2	1.31
NCI-H2126	1.01
SK-MES-1	1.09
H3255	1.02
COR-L23	1.18
COR-L 105	1.03
IA-LM	1.18
LOU-NH91	1.05
NCI-H2170	1.1
NCI-H3122	1.01
HOP-62	1.06
HCC-44	0.981
A549	1.16
LU99A	1.22

Cell Line	relative viability
BEN	1.34
HARA	1.01
HCC-78	1.22
LCLC-97TM1	1.29
NCI-H2023	1.17
A-427	1.17
NCI-H460	1.07
NCI-H727	1.13
NCI-H1734	1.14
NCI-H520	1.17
NCI-H2405	1.18
SW 1573	1.15
NCI-H1395	1.03
201T	1.02
NCI-H1915	1.14
HCC-827	1.07
LXF-289	0.984
NCI-H2347	1.19

same assay, conditions: 2.53 µM

Cell Line	relative viability
Calu-6	0.987
HCC-366	1.01
NCI-H1666	1.01
NCI-H647	0.893
LK-2	1.02
NCI-H2126	0.95
SK-MES-1	0.971
H3255	0.907
COR-L23	0.877
COR-L 105	0.825
IA-LM	0.95
LOU-NH91	1.04
NCI-H2170	0.987
NCI-H3122	1.03
HOP-62	1.03
HCC-44	1.01
A549	0.973
LU99A	0.755

Cell Line	relative viability
BEN	1.03
HARA	0.953
HCC-78	0.985
LCLC-97TM1	0.862
NCI-H2023	0.907
A-427	0.869
NCI-H460	0.988
NCI-H727	1.05
NCI-H1734	0.926
NCI-H520	0.906
NCI-H2405	0.926
SW 1573	0.969
NCI-H1395	0.82
201T	1.01
NCI-H1915	0.964
HCC-827	1.03
LXF-289	0.979
NCI-H2347	1.03
